We go through eleven molecules from patent US10335417B2, “Thiazideamide derivative and use thereof” (Institute of Pharmacology and Toxicology Academy of …, priority 2015, dated 2019).

The nature of one data set: in vitro. To be noted: dog, MDCK-MDR1. From the text: MDCK-MDR1 cells were monolayer cells which highly express P-gp transporter after transfection of MDCK (Madin-Darby canine kidney epithelial cell) with MDR1 gene. Due to its density and high expression of efflux protein, the monolayer has similarity compared to blood-brain barrier (BBB) structure and now can be used as one of models for evaluating the ability of passing through BBB. In the invention, MDCK-MDR1 cells were used to study the membrane permeability of the compounds according to the invention, and to primarily evaluate its ability of passing through BBB.
The frozen MDCK-MDR1 cells were quickly thawed in a 37° C. water bath. To the resuscitated cells, DMEM medium containing 10% FBS was added, and the cells were cultured in an incubator at 37° C., 5% CO2, and a relative humidity of 90%. The medium was changed every other day. After fusion of the cells growing for 1-2 days, the cells were digested with 0.25% trypsin-EDTA (0.2%) mixed digestion solution at 37° C., and were sub-cultured at a certain ratio. The cells for use in experiment were those passaged for 40-60 generations.
When the cell fusion degree reached 80%, the cells were digested and then suspended in complete medium, and seeded to Millicell plate at 1×10^6 cells·mL^−1. The medium was changed every other day, and 1 week later, the medium was changed every day. After culturing for 5 days, the resistance value reached a constant value (>200 Ω·cm^2), and the cells could be used in the transport experiment.
After washing with 37° C. HBSS twice, the cells were incubated in a 37° C. culture incubator, wherein Rho-123 was added to the upper wells, and HBSS was added to the bottom wells. The incubation was carried out in a constant temperature shaker, and the solutions from the bottom wells were collected at each time point (0 min, 30 min, 90 min, 120 min), and stored at −20° C. for further use. The amount of Rho-123 permeated to the bottom well was determined by fluorospectrophotometer, wherein the emission wavelength was […], and the excitation wavelength was 530 nm.
The permeability from cavity-surface to basal surface: drug-containing HBSS 0.35 mL was add to Apical (AP), and blank HBSS 1.2 mL was added to Basolateral (BL). The Millicell was placed at 37° C. in a shaker under shaking at 50 r·min^−1, 50 μL sample was collected from the bottom well at 0, 30, 90, 120 min, respectively, and the same volume of blank HBSS was supplemented. 3 wells were set for each concentration, and to the sample, an internal standard solution (50 μL) and ethyl acetate (350 μL) were added precisely. The mixture was mixed homogeneously under shaking, and centrifuged at 12000 rmp for 5 min. The supernatant (300 μL) was volatilized to dryness, and re-dissolved in 50 μL acetonitrile. The 10 μL resultant solution was used for determination.
The permeability from basal surface to cavity surface: the drug is added to Basolateral (BL), and blank HBSS was added to Apical (AP), and the other steps were the same as those of the experiment for determining the permeability from cavity-surface to basal surface.
The apparent permeability coefficient (Papp) of a drug reflects the ability of the drug to pass through cell monolayer and the drug absorption rate and extent. It can be calculated in accordance with the following equation: […]
wherein, Q represents the amount of drug permeated in the t period, A represents cell surface area, and represents the area (0.6 cm^2) of supporting film in this model, and C0 represents an initial concentration. The unit of Papp is expressed as cm·s^−1.
By measurement using LC/MS, the concentration of each sample was quantitated using its standard curve (50 nM-10000 nM).

For data set [1], the system named is chick embryo dorsal root ganglion. Description: in vitro serum-free culture model of chick embryonic dorsal root ganglion: neurite growth score with NGF. To be noted: 48 h, score 0-3, average of five ganglions, control 0.33. It counts as cell-based. On the procedure:
The neurotrophic activity of the compounds according to the invention can be embodied in multiple in vitro biological models, such as in vitro serum-free culture model of chick embryonic dorsal root ganglion.
Experimental method: in a sterile environment, chick embryo, which had been incubated for 8 d, had the spinal and bilateral ganglion exposed under anatomical lens. Dorsal root ganglions were picked one by one using sharp forceps, and seeded in culture bottles spread with rat tail collagen, at a density of 5-6 ganglions per bottle, and two bottles for each dose. After attachment culture in a 37° C., 5% CO2 incubator for 1 h, serum-free medium DMEM containing nerve growth factor (NGF) (0.15 ng/mL), and the compound according to the invention were added. In the control group, only the medium and the same dose of NGF were added. After culture in the incubator for 48 h, the growth of neurite around dorsal root ganglion was observed under inverted phase contrast microscope, which was scored depending on the length and density of neurite.
Evaluation criteria: 0: no neurite; 1: rare long neurite; 2: relatively long or dense neurite; 3: long and dense neurite.

Data set [2] concerns BCAO-LBP mice (incomplete global cerebral ischemia). Description: mouse BCAO-LBP model of incomplete global cerebral ischemia: cerebral MDA content and neurological function score. It counts as in vivo, Kunmin mice. To be noted: 30 mg/kg i.g. once/d for 3 d, x ± SEM. From the text:
In the Example, Kunmin mice were used as experimental subjects, intragastric (i.g.) administration was used, mouse BCAO-LBP (bilateral carotid artery occlusion with low blood pressure) model was used, and by determining neurological function score and the cerebral malondialdehyde (MDA) content in mice, the compounds were investigated for their protective effects on incomplete global cerebral ischemia in mice when administered prophylactically.
2.1.2 Preparation of a drug for intragastric administration: the compound was prepared to a 1.5 mg/ml solution using 0.7% CMC-Na solution.
28 mice, which had adapted to the laboratory environment for 1 week, were evenly grouped depending on body weight. The mice were intragastrically administered with 0.7% CMC-Na or one of the compounds, once/d, for 3 d. The groups were as followed:
Administration group: 12 mice, intragastrically administered at a dose of 0.2 ml/10 g, i.e., the dose of the compound was 30 mg/kg.
2.3.1 Mouse bilateral carotid artery ligation: 1 h after the last administration, the mice were subjected to orbital bloodletting to reduce blood pressure (which was about 30% of the total blood volume of the mice), and then fixed in supine position on the operating table, and cut in the middle of neck. Carotid artery was subjected to blunt dissection, and 2 lines were used in ligation for each side. The time counting started after the ligation with the third line, the carotid artery was cut off between the two lines, and the incision was sewn up. In the Sham-operated group, the carotid artery was only separated without ligation. After the operation, the mice were unfixed quickly, and the mice were observed and recorded for the behaviors within 6 h (scoring depending on the following table using blind method) and the death time. The brains were taken quickly after the mice died, the cerebellums were removed, and the MDA content in the whole cerebrum was determined by thiobarbituric acid (TBA).
The cerebra of mice were taken and weighed, and were prepared into 15% brain homogenate using N.S. 1.2 ml brain homogenate was placed in a 37° C. water bath for 1 h (shaking once every 10 min) and then taken out. 20% trichloroacetic acid 0.6 ml was added, and the mixture was mixed well, and was on standing for 10 min. After centrifugation at 2000 rpm for 10 min, to 1.2 ml supernatant, 0.67% TBA 0.6 ml was added. The mixture was placed in a boiling water bath for 10 min, and was taken out for cooling, and the OD value at a wavelength of 532 nm was determined.
The experimental data was expressed as x±SEM; SPSS 13.0 statistic software was used. Homogeneity or heterogeneity of variance was determined by one-factor analysis of variance. In the case of homogeneity of variance, LSD test was used; in the case of heterogeneity of variance, Dunnett's T3 test was used. Significant difference among different groups was compared, and P<0.05 indicated statistical significance.

The mark [3] stands for this setting: compound 100 pM + NGF 0.15 ng/mL.

The term Papp denotes the rate of passage across a membrane or cell layer, normalised by area and donor concentration.

For the molecule `Cc1ccc(S(=O)(=O)N2CCSC[C@H]2C(=O)N[C@@H](Cc2ccccc2)C(=O)OC(C)(C)C)cc1` [Compound 19, (S)-tert-butyl-3-phenyl-2((R)-(4-methylphenyl)sulfonyltetrahydro-1,4-thiazin-3-aminoformyl)propionate], in the data set “in vitro”, the apparent permeability coefficient (Papp) at 120 min is 42.3 ×10⁻⁶ cm/s. In addition, the “Average score (growth of neurites of chick embryo dorsal root ganglion)” value (“Average score” for short) in data set [1] (compound 1 pM + NGF 0.15 ng/mL) was 1.55; in data set [1] (setting [3]), 2.49.

In turn, `Cc1ccc(S(=O)(=O)N2CCSC[C@H]2C(=O)N[C@H](C(=O)OCc2ccccc2)C(C)C)cc1` [Compound 11, (S)-benzyl-3-methyl-2((R)-(4-methylphenyl)sulfonyltetrahydro-1,4-thiazin-3-aminoformyl)butyrate] came in with a Papp at 120 min in the data set “in vitro” of 15.6 ×10⁻⁶ cm/s. The entries for the “Average score” value in data set [1] (compound 1 pM + NGF 0.15 ng/mL) and in data set [1] (setting [3]) were 1.86 and 2.65, respectively. Further, the Neurologic deficit score in data set [2] (behaviour within 6 h after ligation, model group 3.92, sham 0.00) came out at 3.66 ± 0.31. Besides, the MDA content in data set [2] (whole cerebrum, model group 40.94, sham 33.15) is given as 32.57 ± 0.75 nmol/g.

`COC(=O)[C@H](NC(=O)[C@@H]1CSCCN1S(=O)(=O)c1ccc(C)cc1)C(C)C` [Compound 14, (R)-methyl-3-methyl-2((R)-(4-methylphenyl)sulfonyltetrahydro-1,4-thiazin-3-aminoformyl)butyrate] showed a Papp at 120 min in the data set “in vitro” of 33.2 ×10⁻⁶ cm/s. Further, the entries for the “Average score” value in data set [1] (compound 1 pM + NGF 0.15 ng/mL) and in data set [1] (setting [3]) were 1.44 and 2.35, respectively.

The molecule `CCOC(=O)[C@H](Cc1ccccc1)NC(=O)[C@@H]1CSCCN1S(=O)(=O)c1ccc(C)cc1` [Compound 17, (S)-ethyl-3-phenyl-2((R)-(4-methylphenyl)sulfonyltetrahydro-1,4-thiazin-3-aminoformyl)propionate] came in with a Papp at 120 min in the data set “in vitro” of 22.7 ×10⁻⁶ cm/s. The “Average score” value worked out at 1.75 in data set [1] (compound 1 pM + NGF 0.15 ng/mL) and 2.71 in data set [1] (setting [3]).

As to `COC(=O)[C@@H](NC(=O)[C@@H]1CSCCN1S(=O)(=O)c1ccc(C)cc1)C(C)C` [Compound 10, (S)-methyl-3-methyl-2((R)-(4-methylphenyl)sulfonyltetrahydro-1,4-thiazin-3-aminoformyl)butyrate], the Papp at 120 min in “in vitro” is 34.1 ×10⁻⁶ cm/s. The “Average score” value was 1.54 in data set [1] (compound 1 pM + NGF 0.15 ng/mL) and 2.38 in data set [1] (setting [3]).

In “in vitro”, `Cc1ccc(S(=O)(=O)N2CCSC[C@H]2C(=O)N[C@H](CCc2ccccc2)C(=O)OC(C)C)cc1` [Compound 26, (R)-isopropyl-4-phenyl-2((R)-(4-methylphenyl)sulfonyltetrahydro-1,4-thiazin-3-aminoformyl)butyrate] registered a Papp at 120 min of 35.9 ×10⁻⁶ cm/s. In addition, the “Average score” value in data set [1] (compound 1 pM + NGF 0.15 ng/mL) was 1.80; in data set [1] (setting [3]), 2.78.

In the case of `CCOC(=O)[C@@H](Cc1ccccc1)NC(=O)[C@@H]1CSCCN1S(=O)(=O)c1ccc(C)cc1` [Compound 21, (R)-ethyl-3-phenyl-2((R)-(4-methylphenyl)sulfonyltetrahydro-1,4-thiazin-3-aminoformyl)propionate], the Papp at 120 min in “in vitro” was determined as 25.8 ×10⁻⁶ cm/s. The “Average score” value came to 1.79 in data set [1] (compound 1 pM + NGF 0.15 ng/mL) and 2.74 in data set [1] (setting [3]).

Consider `Cc1ccc(S(=O)(=O)N2CCSC[C@H]2C(=O)N[C@H](C(=O)OC(C)(C)C)C(C)C)cc1` [Compound 12, (S)-tert-butyl-3-methyl-2((R)-(4-methylphenyl)sulfonyltetrahydro-1,4-thiazin-3-aminoformyl)butyrate], for which the Papp at 120 min in “in vitro” was 22.5 ×10⁻⁶ cm/s. Also, the “Average score” value worked out at 1.77 in data set [1] (compound 1 pM + NGF 0.15 ng/mL) and 2.48 in data set [1] (setting [3]).

As for `COC(=O)[C@H](Cc1ccccc1)NC(=O)[C@@H]1CSCCN1S(=O)(=O)c1ccc(C)cc1` [Compound 16, (S)-methyl-3-phenyl-2((R)-(4-methylphenyl)sulfonyltetrahydro-1,4-thiazin-3-aminoformyl)propionate], the Papp at 120 min in the data set “in vitro” worked out at 39.7 ×10⁻⁶ cm/s. The “Average score” value in data set [1] (compound 1 pM + NGF 0.15 ng/mL) worked out at 1.57; in data set [1] (setting [3]) it was 2.69.

`Cc1ccc(S(=O)(=O)N2CCSC[C@H]2C(=O)N[C@@H](CCc2ccccc2)C(=O)OC(C)C)cc1` [Compound 25, (S)-isopropyl-4-phenyl-2((R)-(4-methylphenyl)sulfonyltetrahydro-1,4-thiazin-3-aminoformyl)butyrate] showed a Papp at 120 min in “in vitro” of 27.3 ×10⁻⁶ cm/s. Moreover, the entries for the “Average score” value in data set [1] (compound 1 pM + NGF 0.15 ng/mL) and in data set [1] (setting [3]) were 1.76 and 2.68, respectively.

In the case of `Cc1ccc(S(=O)(=O)N2CCSC[C@H]2C(=O)N[C@H](Cc2ccccc2)C(=O)OC(C)C)cc1` [Compound 24, (R)-isopropyl-3-phenyl-2((R)-(4-methylphenyl)sulfonyltetrahydro-1,4-thiazin-3-aminoformyl)propionate], the Papp at 120 min in “in vitro” came out at 37.8 ×10⁻⁶ cm/s. Further, the “Average score” value in data set [1] (compound 1 pM + NGF 0.15 ng/mL) turned out to be 1.89; in data set [1] (setting [3]), 2.80.
